{"source": "ChEMBL document CHEMBL5625161", "about": "“Pharmacological activity and mechanism of pyrazines” (Eur J Med Chem, 2023)", "key": {"HT-29": {"system": "HT-29", "assay": "Antiproliferative activity against human HT-29 cells assessed as reduction in cell viability incubated for 72 hrs by MTT assay", "type": "functional, cell-based", "settings": "HT-29, 72 h"}, "A-375": {"system": "A-375", "assay": "Antiproliferative activity against human A-375 cells assessed as reduction in cell growth by MTT assay", "type": "functional, cell-based"}, "MIA PaCa-2": {"system": "MIA PaCa-2", "assay": "Antiproliferative activity against human MIA PaCa-2 cells assessed as reduction in cell growth by MTT assay", "type": "functional, cell-based"}, "BGC-823": {"system": "BGC-823", "assay": "Antiproliferative activity against human BGC-823 cells assessed as reduction in cell growth by MTT assay", "type": "functional, cell-based"}, "MCF7 [1]": {"system": "MCF7", "assay": "Antiproliferative activity against human MCF7 cells assessed as reduction in cell growth by MTT assay", "type": "functional, cell-based"}, "HCT-116 [2]": {"system": "HCT-116", "assay": "Antiproliferative activity against human HCT-116 cells assessed as reduction in cell growth by MTT assay", "type": "functional, cell-based"}, "[3]": {"target": "Mitogen-activated protein kinase 1 (Homo sapiens, UniProt P28482)", "sequence (P28482 whole entry)": "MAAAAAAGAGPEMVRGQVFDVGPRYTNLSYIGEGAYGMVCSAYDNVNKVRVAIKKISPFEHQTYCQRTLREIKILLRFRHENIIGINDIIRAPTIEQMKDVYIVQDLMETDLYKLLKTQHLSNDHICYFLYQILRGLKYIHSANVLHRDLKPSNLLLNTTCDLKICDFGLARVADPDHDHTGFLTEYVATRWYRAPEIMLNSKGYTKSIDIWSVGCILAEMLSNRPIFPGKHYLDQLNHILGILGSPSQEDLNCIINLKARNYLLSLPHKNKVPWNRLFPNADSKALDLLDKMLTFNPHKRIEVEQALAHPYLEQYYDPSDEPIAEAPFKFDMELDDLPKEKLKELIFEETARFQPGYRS", "assay": "Inhibition of ERK2 (unknown origin)"}, "[4]": {"target": "Mitogen-activated protein kinase 6 (Homo sapiens, UniProt Q16659)", "sequence (Q16659 whole entry)": "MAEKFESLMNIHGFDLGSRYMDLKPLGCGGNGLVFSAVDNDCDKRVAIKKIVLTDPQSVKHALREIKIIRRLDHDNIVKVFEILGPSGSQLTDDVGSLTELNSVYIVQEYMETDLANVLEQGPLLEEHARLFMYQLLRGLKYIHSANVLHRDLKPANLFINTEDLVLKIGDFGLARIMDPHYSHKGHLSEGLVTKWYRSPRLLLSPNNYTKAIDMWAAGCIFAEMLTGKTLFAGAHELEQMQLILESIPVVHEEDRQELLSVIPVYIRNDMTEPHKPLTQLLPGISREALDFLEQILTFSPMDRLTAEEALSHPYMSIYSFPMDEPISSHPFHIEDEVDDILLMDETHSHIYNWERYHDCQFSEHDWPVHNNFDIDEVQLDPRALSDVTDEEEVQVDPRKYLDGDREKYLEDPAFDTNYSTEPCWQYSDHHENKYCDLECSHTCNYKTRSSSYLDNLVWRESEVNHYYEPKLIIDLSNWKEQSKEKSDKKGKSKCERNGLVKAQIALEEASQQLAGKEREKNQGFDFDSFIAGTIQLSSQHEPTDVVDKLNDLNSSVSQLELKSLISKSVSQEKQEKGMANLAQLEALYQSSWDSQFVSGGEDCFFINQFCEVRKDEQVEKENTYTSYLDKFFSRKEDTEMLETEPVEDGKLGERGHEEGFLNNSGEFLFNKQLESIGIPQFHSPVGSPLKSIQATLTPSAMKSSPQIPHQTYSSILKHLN", "assay": "Inhibition of ERK3 (unknown origin)"}, "[5]": {"target": "Mitogen-activated protein kinase 3 (Homo sapiens, UniProt P27361)", "sequence (P27361 whole entry)": "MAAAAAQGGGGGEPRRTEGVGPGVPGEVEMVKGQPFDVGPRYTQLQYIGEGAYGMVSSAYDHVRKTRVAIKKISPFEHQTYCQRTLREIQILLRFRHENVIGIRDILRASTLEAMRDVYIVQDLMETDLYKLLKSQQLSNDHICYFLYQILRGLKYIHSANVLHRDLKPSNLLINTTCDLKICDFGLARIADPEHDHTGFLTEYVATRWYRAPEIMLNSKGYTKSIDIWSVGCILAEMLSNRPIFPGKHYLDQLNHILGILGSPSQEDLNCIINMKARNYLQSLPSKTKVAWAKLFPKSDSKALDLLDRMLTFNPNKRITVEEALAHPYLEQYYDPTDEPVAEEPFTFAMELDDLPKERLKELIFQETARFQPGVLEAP", "assay": "Inhibition of ERK1 (unknown origin)"}, "T-24": {"system": "T-24", "assay": "Antiproliferative activity against human T-24 cells assessed as inhibition of cell growth incubated for 72 hrs by MTT assay", "type": "functional, cell-based", "settings": "T-24, 72 h"}, "HeLa": {"system": "HeLa", "assay": "Antitumor activity against human HeLa cells assessed as cell growth inhibition incubated for 72 hrs by MTT assay", "type": "functional, cell-based"}, "MGC-803": {"system": "MGC-803", "assay": "Antiproliferative activity against human MGC-803 cells assessed as inhibition of cell growth incubated for 72 hrs by MTT assay", "type": "functional, cell-based", "settings": "MGC-803, 72 h"}, "[6]": {"assay": "Antiproliferative activity against human WI-38 cells assessed as cell growth inhibition measured after 72 hrs by MTT assay", "type": "toxicity, cell-based"}, "L02": {"system": "L02", "assay": "Antiproliferative activity against human HL7702 cells assessed as cell growth inhibition measured after 72 hrs by MTT assay", "type": "functional, cell-based", "settings": "L02, 72 h"}, "A549 [7]": {"system": "A549", "assay": "Antiproliferative activity against human A549 cells assessed as inhibition of cell growth at 10 uM relative to control", "type": "functional", "parameters": "scale not given: the % may be the effect or the level left"}, "Histone deacetylase 1": {"target": "Histone deacetylase 1 (Homo sapiens, UniProt Q13547)", "sequence (Q13547 whole entry)": "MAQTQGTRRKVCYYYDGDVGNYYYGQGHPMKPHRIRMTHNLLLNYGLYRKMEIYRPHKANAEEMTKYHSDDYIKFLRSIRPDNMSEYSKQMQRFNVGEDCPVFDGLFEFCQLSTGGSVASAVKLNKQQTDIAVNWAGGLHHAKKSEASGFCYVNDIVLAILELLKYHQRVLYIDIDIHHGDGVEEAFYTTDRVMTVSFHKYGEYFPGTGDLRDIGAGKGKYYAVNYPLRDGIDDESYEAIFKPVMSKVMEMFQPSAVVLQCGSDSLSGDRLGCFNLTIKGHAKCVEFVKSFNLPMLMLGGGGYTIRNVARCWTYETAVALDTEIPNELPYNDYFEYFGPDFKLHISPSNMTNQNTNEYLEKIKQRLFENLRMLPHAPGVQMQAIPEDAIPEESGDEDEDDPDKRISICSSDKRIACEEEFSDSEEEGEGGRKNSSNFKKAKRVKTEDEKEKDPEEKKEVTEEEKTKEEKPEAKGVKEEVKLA", "assay": "Inhibition of human recombinant HDAC1"}, "Histone deacetylase 2": {"target": "Histone deacetylase 2 (Homo sapiens, UniProt Q92769)", "sequence (Q92769 whole entry)": "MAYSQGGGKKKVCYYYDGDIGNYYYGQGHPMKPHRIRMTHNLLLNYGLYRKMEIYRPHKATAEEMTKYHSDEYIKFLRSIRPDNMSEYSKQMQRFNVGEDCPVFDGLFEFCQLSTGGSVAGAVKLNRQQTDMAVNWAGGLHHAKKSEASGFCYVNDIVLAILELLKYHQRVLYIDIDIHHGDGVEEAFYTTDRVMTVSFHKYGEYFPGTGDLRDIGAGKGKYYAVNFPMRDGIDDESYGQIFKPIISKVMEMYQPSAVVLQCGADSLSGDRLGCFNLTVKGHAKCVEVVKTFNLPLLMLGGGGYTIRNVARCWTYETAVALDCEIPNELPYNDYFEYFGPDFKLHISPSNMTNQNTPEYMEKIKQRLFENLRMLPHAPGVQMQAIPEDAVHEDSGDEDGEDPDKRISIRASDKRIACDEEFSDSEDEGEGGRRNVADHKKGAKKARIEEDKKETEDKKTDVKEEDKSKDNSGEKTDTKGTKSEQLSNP", "assay": "Inhibition of human recombinant HDAC2"}, "Histone deacetylase 3": {"target": "Histone deacetylase 3 (Homo sapiens, UniProt O15379)", "sequence (O15379 whole entry)": "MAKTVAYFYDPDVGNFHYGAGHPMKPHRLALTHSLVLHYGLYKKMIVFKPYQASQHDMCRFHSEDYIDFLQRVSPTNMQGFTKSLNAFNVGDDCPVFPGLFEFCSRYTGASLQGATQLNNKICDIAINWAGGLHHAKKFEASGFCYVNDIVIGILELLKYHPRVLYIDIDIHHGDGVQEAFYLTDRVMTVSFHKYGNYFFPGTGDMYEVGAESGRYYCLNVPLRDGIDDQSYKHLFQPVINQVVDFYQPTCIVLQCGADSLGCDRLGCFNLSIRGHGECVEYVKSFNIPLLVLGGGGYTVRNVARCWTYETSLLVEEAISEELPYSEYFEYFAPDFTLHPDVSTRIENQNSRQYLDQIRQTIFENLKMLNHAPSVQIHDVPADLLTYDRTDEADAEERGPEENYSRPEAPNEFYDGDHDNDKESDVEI", "assay": "Inhibition of human recombinant HDAC3"}, "MCF7 [8]": {"system": "MCF7", "assay": "Antiproliferative activity against human MCF7 cells assessed as reduction in cell viability incubated for 48 hrs by MTT assay", "type": "functional, cell-based", "settings": "MCF7, 48 h"}, "CCRF-CEM": {"system": "CCRF-CEM", "assay": "Growth inhibition of human CCRF-CEM cells", "type": "functional, cell-based", "settings": "pooled result: one value given for 60 cell lines, strains, targets or settings"}, "A549 [9]": {"system": "A549", "assay": "Cytotoxicity against human A549 cells assessed as reduction in cell growth measured after 24 hrs by MTT assay", "type": "functional, cell-based", "settings": "A549, 24 h"}, "[10]": {"assay": "Cytotoxicity against mouse HL-1 cells assessed as cell viability incubated for 24 hrs by CytoTox-Glo luminescence assay relative to control", "type": "toxicity, cell-based"}, "Huh-7": {"system": "Huh-7", "assay": "Antiproliferative activity against human Huh-7 cells assessed as reduction in cell viability incubated for 48 hrs by MTT assay", "type": "functional, cell-based", "settings": "Huh-7, 48 h"}, "Plasmodium falciparum": {"system": "Plasmodium falciparum", "assay": "Antiplasmodial activity against chloroquine-sensitive Plasmodium falciparum NF54 assessed as reduction in parasite growth", "type": "functional, organism-based"}, "[11]": {"system": "Mycobacterium tuberculosis", "assay": "Antimycobacterial activity against Mycobacterium tuberculosis H37Rv assessed as inhibition of bacterial growth by microplate alamar blue assay", "type": "functional"}, "PC-9/ER": {"system": "PC-9/ER", "assay": "Antiproliferative activity against human PC-9/ER cells assessed as inhibition of cell growth incubated for 48 hrs by MTT assay", "type": "functional"}, "PC-9": {"system": "PC-9", "assay": "Antiproliferative activity against human PC-9 cells assessed as reduction in cell growth incubated for 72 hrs by MTT assay", "type": "functional, cell-based", "settings": "PC-9, 72 h"}, "HCT-116 [12]": {"system": "HCT-116", "assay": "Antiproliferative activity against human HCT-116 cells assessed as reduction in cell viability incubated for 72 hrs by MTT assay", "type": "functional, cell-based", "settings": "HCT-116, 72 h"}, "SW-620": {"system": "SW-620", "assay": "Antiproliferative activity against human SW620 cells assessed as reduction in cell viability incubated for 72 hrs by MTT assay", "type": "functional, cell-based", "settings": "SW-620, 72 h"}, "SMMC-7721": {"system": "SMMC-7721", "assay": "Antiproliferative activity against human SMMC-7721 cells assessed as reduction in cell viability measured after 72 hrs by MTT assay", "type": "functional, cell-based", "settings": "SMMC-7721, 72 h"}, "SGC-7901": {"system": "SGC-7901", "assay": "Antiproliferative activity against human SGC-7901 cells assessed as reduction in cell viability measured after 72 hrs by MTT assay", "type": "functional, cell-based", "settings": "SGC-7901, 72 h"}, "[13]": {"assay": "Antiproliferative activity against human PaTu8988 cells assessed as reduction in cell viability measured after 72 hrs by MTT assay", "type": "functional, cell-based", "settings": "PaTu8988, 72 h"}}, "data": [{"smiles": "CNCc1ccc(-c2cc(-c3nc(-c4ccc(S(=O)(=O)C(C)C)cc4)cnc3N)on2)cc1", "note": "[BERZOSERTIB]", "values": [{"measurement": "IC50", "setting": "HT-29", "value": 0.019, "unit": "µM"}]}, {"smiles": "COc1ccc(OCCN2CCn3nnc(-c4cc(C(C)C)c(O)cc4O)c3C2)cc1", "values": [{"measurement": "IC50", "setting": "A-375", "value": 2.29, "unit": "µM"}, {"measurement": "IC50", "setting": "MIA PaCa-2", "value": 6.74, "unit": "µM"}, {"measurement": "IC50", "setting": "BGC-823", "value": 4.15, "unit": "µM"}, {"measurement": "IC50", "setting": "MCF7 [1]", "value": 5.58, "unit": "µM"}, {"measurement": "IC50", "setting": "HCT-116 [2]", "value": 10.2, "unit": "µM"}]}, {"smiles": "CN1CCN([C@H]2C[C@@H](c3nc(-c4ccc5ccc(-c6ccccc6)nc5c4)c4c(N)nccn43)C2)CC1", "values": [{"measurement": "IC50", "setting": "[3]", "value": 0.21, "unit": "µM"}, {"measurement": "IC50", "setting": "[4]", "value": 0.21, "unit": "µM"}, {"measurement": "IC50", "setting": "[5]", "value": 0.21, "unit": "µM"}]}, {"smiles": "Clc1ccc(-c2nc3oc4ccccc4c3nc2-c2ccc(Cl)cc2)cc1", "values": [{"measurement": "IC50", "setting": "T-24", "value": 12.5, "unit": "µM"}, {"measurement": "IC50", "setting": "HeLa", "value": 10, "unit": "µM"}, {"measurement": "IC50", "setting": "MGC-803", "value": 20.2, "unit": "µM"}, {"measurement": "IC50 at 72 h", "setting": "[6]", "value": "> 40", "unit": "µM"}, {"measurement": "IC50", "setting": "L02", "value": 25.4, "unit": "µM"}]}, {"smiles": "Cc1cc(=O)oc2cc(Oc3nc(-c4ccc(Cl)cc4)cn4c(-c5ccc(Cl)cc5)cnc34)ccc12", "values": [{"measurement": "Activity", "setting": "A549 [7]", "value": 90.12, "unit": "%"}]}, {"smiles": "COc1cnc(C(=O)NCC2(C)CCCC3(C)c4ccc(C(C)C)cc4CCC23)cn1", "note": "(configuration not stated)", "values": [{"measurement": "IC50", "setting": "Histone deacetylase 1", "value": 0.13, "unit": "µM"}, {"measurement": "IC50", "setting": "Histone deacetylase 2", "value": 0.28, "unit": "µM"}, {"measurement": "IC50", "setting": "Histone deacetylase 3", "value": 0.31, "unit": "µM"}, {"measurement": "IC50", "setting": "MCF7 [8]", "value": 6.66, "unit": "µM"}]}, {"smiles": "c1cn2cc(-c3ccc4ncn(C5CCCCC5)c4c3)nc(-c3ccc4ncn(C5CCCCC5)c4c3)c2n1", "values": [{"measurement": "IC50", "setting": "CCRF-CEM", "value": 0.81, "unit": "µM"}]}, {"smiles": "N/C(=N\\N=C\\c1ccccc1)c1cnccn1", "values": [{"measurement": "IC50", "setting": "A549 [9]", "value": 0.173, "unit": "µg/mL"}]}, {"smiles": "S=C(N/N=C(\\c1ccccc1)c1ccccn1)Nc1ccccc1", "values": [{"measurement": "IC50 at 24 h", "setting": "[10]", "value": 1.43, "unit": "µM"}]}, {"smiles": "N=C(NC(=O)c1nc(Cl)c(N)nc1N)NC(=O)c1c(Cl)cccc1Cl", "values": [{"measurement": "IC50", "setting": "Huh-7", "value": 12.8, "unit": "µM"}]}, {"smiles": "O=C(NCCNc1ccnc2cc(Cl)ccc12)c1cnccn1", "values": [{"measurement": "IC50", "setting": "Plasmodium falciparum", "value": 0.647, "unit": "µM"}, {"measurement": "MIC99", "setting": "[11]", "value": 320, "unit": "µM"}]}, {"smiles": "c1cc2cc(-c3cnc4nc(-c5ccc6c(c5)OCCO6)cnc4c3)ccc2[nH]1", "values": [{"measurement": "IC50", "setting": "PC-9/ER", "value": 0.15, "unit": "µM"}, {"measurement": "IC50", "setting": "PC-9", "value": 0.09, "unit": "µM"}]}, {"smiles": "O=C(Nc1ccc2ccccc2c1)c1c(Cc2ccccc2)n2nc3ccccc3c2c(=O)n1C1CC1", "values": [{"measurement": "IC50", "setting": "HCT-116 [12]", "value": 1.3, "unit": "µM"}, {"measurement": "IC50", "setting": "SW-620", "value": 1.8, "unit": "µM"}]}, {"smiles": "COc1cccc(/C=N/C(=O)c2cnccn2)c1O", "values": [{"measurement": "IC50", "setting": "SMMC-7721", "value": 0.3, "unit": "µM"}, {"measurement": "IC50", "setting": "SGC-7901", "value": 0.3, "unit": "µM"}, {"measurement": "IC50", "setting": "[13]", "value": 0.3, "unit": "µM"}]}]}
